Consider 19 molecules from patent publication US12622909B2, “Allosteric EGFR inhibitors and methods of use thereof” (Dana-Farber Cancer Institute, Inc., priority 2019, dated 2026).

Experiment [1] has as its target EGFR L858R (Homo sapiens, UniProt P00533, L858R). As to the kind of experiment: HTRF-based EGFR biochemical assay (L858R). The following applies: 100 μM ATP, enzyme 0.1 nM. How it is done: (§1) EGFR biochemical activity measurements were carried out using the homogeneous time-resolved fluorescence (HTRF) assay (Cisbio). Inhibitors and DMSO normalizations were first dispensed to empty black low-volume 384-well plates (Corning) with D300 digital liquid dispenser (HP). All reactions were carried out at room temperature and solutions were added to plates with a Multidrop Combi Reagent Dispenser (ThermoFisher). The reaction mixture (10 μL final volume) contained 1 μM tyrosine kinase peptide-biotin substrate and mutant EGFR in a reaction buffer (50 mM HEPES pH 7.0, 5 mM MgCl2, 1 mM MnCl2, 0.01% BSA, 2 mM TCEP, 0.1 mM NaVO4). […] Enzyme reaction solution (2× concentrations, 5 μL) was added to 384-well plates containing compounds and incubated for 30 mins. Enzyme reactions were initiated with the addition of 5 μL of ATP to a final concentration of 100 μM and reacted for 20 mins. Reactions were quenched with the addition of 10 μL of phospho-tyrosine antibody-Europium(III) cryptate (1-to-180 volume ratio) and Streptavidin-XL665 (46.7 nM) in EDTA-containing detection buffer, then incubated at room temperature for 1 hour, and read with a PHERAstar plate reader (excitation=337 nm, emission=620 nm and 665 nm).
On the technique in general: Time-resolved FRET reads energy transfer from a long-lived donor to a nearby acceptor.

Experiment [2] concerns the target EGFR L858R/T790M mutant Ba/F3 cells (Homo sapiens, UniProt P00533, T790M/L858R, cells depend on it). As to the kind of experiment: Ba/F3 cell proliferation (Cell Titer Glo). The class given is cell-based, murine. The following applies: 72 hours. The source says:
All cell lines were maintained in RPMI 1640 (Cellgro; Mediatech Inc., Herndon, CA) supplemented with 10% FBS, 100 units/mL penicillin, 100 units/mL streptomycin. The EGFR I941R mutation was introduced via site directed mutagenesis using the Quick Change Site-Directed Mutagenesis kit (Stratagene; La Jolla, CA) according to the manufacturer's instructions. All constructs were confirmed by DNA sequencing. The constructs were shuttled into the retroviral vector JP1540 using the Cre-recombination system (Agilent Technologies, Santa Clara, CA). Ba/F3 cells were then infected with retrovirus per standard protocols, as described previously (Zhou, et al, Nature 2009). Stable clones were obtained by selection in puromycin (2 μg/ml).
Growth and inhibition of growth was assessed by the Cell Titer Glo assay (Promega, Madison, WI) and was performed according to the manufacturer's instructions. The Cell Titer Glo assay is a luminescence-based method used to determine the number of viable cells based on quantitation of the ATP present, which is directly proportional to the amount of metabolically active cells present. […] All experimental points were set up in triplicates in 384-well plates and all experiments were repeated at least three times. […] The curves were fitted using a non-linear regression model with a sigmoidal dose response.
In general terms: Cellular ATP, detected with luciferase, serves as a proxy for viable cell number.

The target in experiment [3] is EGFR L858R/T790M (Homo sapiens, UniProt P00533, L858R/T790M). As to the kind of experiment: HTRF-based EGFR biochemical assay (L858R/T790M). The following applies: 100 μM ATP, enzyme 0.02 nM. How it is done: as §1, with “mins.” for “mins. Reactions were quenched with the addition of 10 μL of phospho-tyrosine antibody-Europium(III) cryptate (1-to-180 volume ratio) and Streptavidin-XL665 (46.7 nM) in EDTA-containing detection buffer, then incubated at room temperature for 1 hour, and read with a PHERAstar plate reader (excitation=337 nm, emission=620 nm and 665 nm).”

[4] abbreviates: in combination with 1 μg/ml cetuximab, read-out: Cell IC50 BaF3 L858R/T790M compound + cetuximab.
Setting [5] is: single agent, read-out: Cell IC50 EGFR BaF3 L858R/T790M.

In general, IC50 refers to the point on the concentration scale where inhibition reaches its midpoint. A high value points to lower potency.

Like-named read-outs stand apart in the source and are kept apart here.

Chain of EGFR L858R/T790M (P00533 25-1210 T790M/L858R): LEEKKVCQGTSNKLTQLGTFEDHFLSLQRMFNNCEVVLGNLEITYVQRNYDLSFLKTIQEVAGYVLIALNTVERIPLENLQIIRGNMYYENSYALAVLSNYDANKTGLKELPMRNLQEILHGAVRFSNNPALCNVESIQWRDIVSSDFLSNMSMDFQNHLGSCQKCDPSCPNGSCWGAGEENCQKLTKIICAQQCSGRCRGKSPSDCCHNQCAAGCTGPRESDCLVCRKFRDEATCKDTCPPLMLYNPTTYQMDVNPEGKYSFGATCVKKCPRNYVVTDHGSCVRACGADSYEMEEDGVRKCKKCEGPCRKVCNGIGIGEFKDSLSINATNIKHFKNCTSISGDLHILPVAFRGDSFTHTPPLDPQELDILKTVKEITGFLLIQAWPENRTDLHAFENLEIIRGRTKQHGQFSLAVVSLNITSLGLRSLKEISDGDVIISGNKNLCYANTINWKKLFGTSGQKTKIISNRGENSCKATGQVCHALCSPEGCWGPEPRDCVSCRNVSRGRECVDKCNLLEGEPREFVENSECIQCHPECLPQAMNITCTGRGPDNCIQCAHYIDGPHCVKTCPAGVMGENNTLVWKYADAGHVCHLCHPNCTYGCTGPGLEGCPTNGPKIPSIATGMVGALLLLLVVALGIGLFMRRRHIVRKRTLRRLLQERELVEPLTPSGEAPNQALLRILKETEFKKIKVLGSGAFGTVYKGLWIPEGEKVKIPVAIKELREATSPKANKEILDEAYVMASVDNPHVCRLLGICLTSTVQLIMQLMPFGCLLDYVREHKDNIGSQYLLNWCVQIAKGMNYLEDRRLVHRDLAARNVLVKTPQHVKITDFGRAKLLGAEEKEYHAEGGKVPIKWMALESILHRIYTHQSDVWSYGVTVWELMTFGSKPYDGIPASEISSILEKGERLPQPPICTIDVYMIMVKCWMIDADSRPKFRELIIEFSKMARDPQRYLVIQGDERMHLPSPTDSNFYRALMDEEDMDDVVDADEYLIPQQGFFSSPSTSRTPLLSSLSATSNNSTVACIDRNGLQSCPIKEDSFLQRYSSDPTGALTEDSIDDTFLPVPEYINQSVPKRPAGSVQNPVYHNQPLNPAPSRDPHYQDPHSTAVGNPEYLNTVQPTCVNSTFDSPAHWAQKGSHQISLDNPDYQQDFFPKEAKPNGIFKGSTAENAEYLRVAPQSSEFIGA
Chain of EGFR L858R/T790M mutant Ba/F3 cells (P00533 whole entry T790M/L858R): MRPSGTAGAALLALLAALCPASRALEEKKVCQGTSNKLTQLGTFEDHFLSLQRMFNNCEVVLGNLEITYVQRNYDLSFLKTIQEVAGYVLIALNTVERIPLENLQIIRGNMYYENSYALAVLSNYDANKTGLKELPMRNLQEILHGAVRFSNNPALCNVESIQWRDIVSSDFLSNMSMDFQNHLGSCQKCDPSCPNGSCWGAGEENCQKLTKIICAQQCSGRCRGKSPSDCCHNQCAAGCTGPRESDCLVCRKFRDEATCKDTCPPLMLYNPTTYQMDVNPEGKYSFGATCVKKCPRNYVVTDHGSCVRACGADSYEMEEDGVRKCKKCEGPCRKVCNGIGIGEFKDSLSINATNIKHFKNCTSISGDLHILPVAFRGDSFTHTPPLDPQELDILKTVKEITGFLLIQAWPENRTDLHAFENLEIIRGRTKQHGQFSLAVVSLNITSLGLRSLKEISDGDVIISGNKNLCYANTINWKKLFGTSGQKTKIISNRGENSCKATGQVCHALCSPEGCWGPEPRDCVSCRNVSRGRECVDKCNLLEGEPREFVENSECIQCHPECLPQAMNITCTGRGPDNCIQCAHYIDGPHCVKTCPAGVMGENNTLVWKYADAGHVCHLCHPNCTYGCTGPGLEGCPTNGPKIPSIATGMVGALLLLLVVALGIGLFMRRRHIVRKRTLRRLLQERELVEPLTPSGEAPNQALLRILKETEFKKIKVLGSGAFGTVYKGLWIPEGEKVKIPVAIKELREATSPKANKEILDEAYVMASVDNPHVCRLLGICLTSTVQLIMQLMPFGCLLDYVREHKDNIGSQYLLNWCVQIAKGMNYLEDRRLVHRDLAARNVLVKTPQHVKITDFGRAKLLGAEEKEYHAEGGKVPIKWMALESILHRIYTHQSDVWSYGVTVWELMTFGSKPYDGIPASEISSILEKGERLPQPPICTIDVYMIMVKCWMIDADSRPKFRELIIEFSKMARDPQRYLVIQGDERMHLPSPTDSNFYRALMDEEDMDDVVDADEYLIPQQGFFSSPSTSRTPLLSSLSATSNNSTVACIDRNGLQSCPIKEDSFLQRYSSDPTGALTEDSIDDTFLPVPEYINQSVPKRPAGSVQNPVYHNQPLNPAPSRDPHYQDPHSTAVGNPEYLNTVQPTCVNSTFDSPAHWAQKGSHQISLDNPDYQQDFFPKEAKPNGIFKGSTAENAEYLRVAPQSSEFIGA
Chain of EGFR L858R (P00533 25-1210 L858R): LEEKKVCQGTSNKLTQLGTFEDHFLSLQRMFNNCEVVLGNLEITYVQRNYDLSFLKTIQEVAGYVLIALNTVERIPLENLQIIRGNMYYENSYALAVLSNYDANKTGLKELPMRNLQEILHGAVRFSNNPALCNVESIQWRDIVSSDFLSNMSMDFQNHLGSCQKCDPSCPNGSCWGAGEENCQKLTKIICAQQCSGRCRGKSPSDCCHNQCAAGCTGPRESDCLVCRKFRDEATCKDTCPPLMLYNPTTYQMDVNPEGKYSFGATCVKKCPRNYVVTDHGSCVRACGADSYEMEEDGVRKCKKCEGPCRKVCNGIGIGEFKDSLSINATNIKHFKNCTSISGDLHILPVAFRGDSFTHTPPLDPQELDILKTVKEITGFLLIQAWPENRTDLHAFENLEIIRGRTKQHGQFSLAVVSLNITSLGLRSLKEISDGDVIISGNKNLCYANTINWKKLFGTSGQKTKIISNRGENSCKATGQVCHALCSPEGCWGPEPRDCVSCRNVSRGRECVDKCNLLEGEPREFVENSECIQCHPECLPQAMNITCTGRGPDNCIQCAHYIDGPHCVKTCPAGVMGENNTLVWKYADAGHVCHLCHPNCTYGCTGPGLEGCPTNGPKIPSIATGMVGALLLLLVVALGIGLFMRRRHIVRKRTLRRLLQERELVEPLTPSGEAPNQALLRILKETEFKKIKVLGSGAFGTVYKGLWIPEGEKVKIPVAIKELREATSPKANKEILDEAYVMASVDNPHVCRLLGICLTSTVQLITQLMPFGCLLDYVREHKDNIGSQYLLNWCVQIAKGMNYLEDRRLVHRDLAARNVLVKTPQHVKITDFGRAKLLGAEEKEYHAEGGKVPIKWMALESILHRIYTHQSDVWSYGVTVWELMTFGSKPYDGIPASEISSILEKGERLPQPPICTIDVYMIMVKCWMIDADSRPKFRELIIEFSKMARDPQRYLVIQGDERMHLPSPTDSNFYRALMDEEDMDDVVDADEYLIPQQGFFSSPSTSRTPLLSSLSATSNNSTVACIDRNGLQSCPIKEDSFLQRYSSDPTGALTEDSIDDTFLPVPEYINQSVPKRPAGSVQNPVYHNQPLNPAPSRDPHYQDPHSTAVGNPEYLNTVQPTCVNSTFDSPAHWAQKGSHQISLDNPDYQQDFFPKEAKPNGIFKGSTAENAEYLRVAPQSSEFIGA

In the case of `O=C(Nc1nccs1)C(c1ccccc1)n1cnc2cc(Br)ccc2c1=O` (centres unmarked) [Compound 001, 2-(7-Bromo-4-oxoquinazolin-3(4H)-yl)-2-phenyl-N-(thiazol-2-yl)acetamide], the concentration for half-maximal inhibition (IC50) in experiment [1] amounted to 1260 nM; in experiment [3] it was 62 nM. The results for the GI50 in experiment [2] (setting [4]) and in experiment [2] (setting [5]) were 8300 nM and above 10000 nM, respectively.

Regarding `O=C(Nc1nccs1)C(c1ccccc1)n1cnc2ccc(Br)cc2c1=O` (centres unmarked) [Compound 002, 2-(6-Bromo-4-oxoquinazolin-3(4H)-yl)-2-phenyl-N-(thiazol-2-yl)-acetamide], the values for the IC50 in experiment [1] and in experiment [3] were 275 nM and 35 nM, respectively. Moreover, the GI50 was 980 nM in experiment [2] (setting [4]) and above 10000 nM in experiment [2] (setting [5]).

For `O=C(Nc1nccs1)C(c1ccccc1)n1ccc2cc(Br)ccc2c1=O` (centres unmarked) [Compound 003, 2-(6-Bromo-1-oxoisoquinolin-2(1H)-yl)-2-phenyl-N-(thiazol-2-yl)-acetamide], the values for the IC50 in experiment [1] and in experiment [3] were 245 nM and 16 nM, respectively. The GI50 in experiment [2] (setting [4]) was 2000 nM; in experiment [2] (setting [5]), above 10000 nM.

Take `O=C(Nc1nccs1)C(c1ccccc1)n1ccc2ccc(Br)cc2c1=O` (centres unmarked) [Compound 004, 2-(7-Bromo-1-oxoisoquinolin-2(1H)-yl)-2-phenyl-N-(thiazol-2-yl)-acetamide]: the figures for the IC50 in experiment [1] and in experiment [3] were 521 nM and 29 nM, respectively. For the same molecule, the results for the GI50 in experiment [2] (setting [4]) and in experiment [2] (setting [5]) were 790 nM and above 10000 nM, respectively.

On to `O=C(Nc1nccs1)C(c1ccccc1)n1cnc2cc(Br)c(F)cc2c1=O` (centres unmarked) [Compound 005, 2-(7-Bromo-6-fluoro-4-oxoquinazolin-3(4H)-yl)-2-phenyl-N-(thiazol-2-yl)acetamide], for which the IC50 was above 1000 nM in experiment [1] and 91 nM in experiment [3]. The GI50 is 4800 nM in experiment [2] (setting [4]) and above 10000 nM in experiment [2] (setting [5]).

Consider `O=C(Nc1nccs1)C(c1ccccc1)n1cc(F)c2cc(Br)ccc2c1=O` (centres unmarked) [Compound 006, 2-(6-Bromo-4-fluoro-1-oxo-isoquinolin-2(1H)-yl)-2-phenyl-N-(thiazol-2-yl)acetamide], for which the half-maximal inhibitory concentration (IC50) in experiment [1] is above 1000 nM; in experiment [3], 36 nM. Besides, the GI50 in experiment [2] (setting [4]) was 1800 nM; in experiment [2] (setting [5]) it was above 10000 nM.

Take `O=C(Nc1nccs1)C(c1cccc(F)c1)n1ccc2ccc(Br)cc2c1=O` (centres unmarked) [Compound 007, 2-(7-Bromo-1-oxoisoquinolin-2(1H)-yl)-2-(3-fluorophenyl)-N-(thiazol-2-yl)acetamide]: the IC50 in experiment [1] is above 1000 nM; in experiment [3], 48 nM. Besides, the GI50 is 1500 nM in experiment [2] (setting [4]) and above 10000 nM in experiment [2] (setting [5]).

As for `O=C(Nc1nccs1)C(c1cccc(F)c1)n1ccc2cc(Br)ccc2c1=O` (centres unmarked) [Compound 008, 2-(6-Bromo-1-oxoisoquinolin-2(1H)-yl)-2-(3-fluorophenyl)-N-(thiazol-2-yl)acetamide], the IC50 was above 1000 nM in experiment [1] and 64 nM in experiment [3]. In addition, the GI50 was 2500 nM in experiment [2] (setting [4]) and above 10000 nM in experiment [2] (setting [5]).

Consider `O=C(Nc1nccs1)C(c1ccccc1)n1ncc2cc(Br)ccc2c1=O` (centres unmarked) [Compound 009, 2-(6-Bromo-1-oxophthalazin-2(1H)-yl)-2-phenyl-N-(thiazol-2-yl)-acetamide], for which the IC50 in experiment [1] is above 1000 nM; in experiment [3], 10 nM. In addition, the GI50 in experiment [2] (setting [4]) and in experiment [2] (setting [5]) was above 10000 nM throughout.

With `O=C(Nc1nccs1)C(c1cccc(F)c1)n1cnc2cc(Br)ccc2c1=O` (centres unmarked) [Compound 010, 2-(7-Bromo-4-oxoquinazolin-3(4H)-yl)-2-(3-fluorophenyl)-N-(thiazol-2-yl)acetamide], the IC50 in experiment [1] was found to be 1840 nM; in experiment [3], 54 nM. Moreover, the GI50 in experiment [2] (setting [4]) and in experiment [2] (setting [5]) was above 10000 nM throughout.

On to `O=C(Nc1nccs1)C(c1cccc(F)c1)n1cnc2ccc(Br)cc2c1=O` (centres unmarked) [Compound 011, 2-(6-Bromo-4-oxoquinazolin-3(4H)-yl)-2-(3-fluorophenyl)-N-(thiazol-2-yl)acetamide], for which the IC50 was found to be 195 nM in experiment [1] and 16 nM in experiment [3]. The GI50 in experiment [2] (setting [4]) is 350 nM; in experiment [2] (setting [5]) it was above 10000 nM.

For `CN1CCC(c2ccc(-c3ccc4c(=O)n(C(C(=O)Nc5nccs5)c5ccccc5)cnc4c3)cc2)CC1` (centres unmarked) [Compound 012, 2-(7-(4-(1-Methylpiperidin-4-yl)phenyl)-4-oxoquinazolin-3(4H)-yl)-2-phenyl-N-(thiazol-2-yl)acetamide], the IC50 in experiment [1] was determined as 11 nM; in experiment [3], 6 nM. The GI50 in experiment [2] (setting [4]) turned out to be 200 nM; in experiment [2] (setting [5]), 2150 nM.

Turning to `CN1CCN(c2ccc(-c3ccc4c(=O)n(C(C(=O)Nc5nccs5)c5ccccc5)cnc4c3)cc2)CC1` (centres unmarked) [Compound 013, 2-(7-(4-(4-Methylpiperazin-1-yl)-phenyl)-4-oxoquinazolin-3(4H)-yl)-2-phenyl-N-(thiazol-2-yl)acetamide], the half-inhibitory concentration (IC50) in experiment [1] amounted to 14 nM; in experiment [3], 3 nM. In addition, the figures for the GI50 in experiment [2] (setting [4]) and in experiment [2] (setting [5]) were 380 nM and 2000 nM, respectively.

`CN1CCC(c2ccc(-c3ccc4ncn(C(C(=O)Nc5nccs5)c5ccccc5)c(=O)c4c3)cc2)CC1` (centres unmarked) [Compound 014, 2-(6-(4-(1-Methylpiperidin-4-yl)-phenyl)-4-oxoquinazolin-3(4H)-yl)-2-phenyl-N-(thiazol-2-yl)acetamide]: the IC50 in experiment [1] is 3 nM; in experiment [3], 0.2 nM. Moreover, the GI50 in experiment [2] (setting [4]) amounted to 5 nM; in experiment [2] (setting [5]), 510 nM.

Take `CN1CCN(c2ccc(-c3ccc4ncn(C(C(=O)Nc5nccs5)c5ccccc5)c(=O)c4c3)cc2)CC1` (centres unmarked) [Compound 015, 2-(6-(4-(4-Methylpiperazin-1-yl)-phenyl)-4-oxoquinazolin-3(4H)-yl)-2-phenyl-N-(thiazol-2-yl)acetamide]: the values for the IC50 in experiment [1] and in experiment [3] were 7 nM and 1 nM, respectively. Further, the figures for the GI50 in experiment [2] (setting [4]) and in experiment [2] (setting [5]) were 20 nM and 2320 nM, respectively.

With `CN1CCC(c2ccc(-c3ccc4c(=O)n(C(C(=O)Nc5nccs5)c5ccccc5)ccc4c3)cc2)CC1` (centres unmarked) [Compound 016, 2-(6-(4-(1-Methylpiperidin-4-yl)-phenyl)-1-oxoisoquinolin-2(1H)-yl)-2-phenyl-N-(thiazol-2-yl)acetamide], the IC50 in experiment [1] was determined as 3 nM; in experiment [3], 1 nM. For the same molecule, the values for the GI50 in experiment [2] (setting [4]) and in experiment [2] (setting [5]) were 20 nM and 1190 nM, respectively.

With `CN1CCN(c2ccc(-c3ccc4c(=O)n(C(C(=O)Nc5nccs5)c5ccccc5)ccc4c3)cc2)CC1` (centres unmarked) [Compound 017, 2-(6-(4-(4-Methylpiperazin-1-yl)-phenyl)-1-oxoisoquinolin-2(1H)-yl)-2-phenyl-N-(thiazol-2-yl)acetamide], the half-inhibitory concentration (IC50) came out at 7 nM in experiment [1] and 3 nM in experiment [3]. The figures for the GI50 in experiment [2] (setting [4]) and in experiment [2] (setting [5]) were 62 nM and 1270 nM, respectively.

As for `CN1CCC(c2ccc(-c3ccc4ccn(C(C(=O)Nc5nccs5)c5ccccc5)c(=O)c4c3)cc2)CC1` (centres unmarked) [Compound 018, 2-(7-(4-(1-Methylpiperidin-4-yl)-phenyl)-1-oxoisoquinolin-2(1H)-yl)-2-phenyl-N-(thiazol-2-yl)acetamide], the figures for the 50% inhibitory concentration (IC50) in experiment [1] and in experiment [3] were 12 nM and 2 nM, respectively. Besides, the GI50 in experiment [2] (setting [4]) turned out to be 72 nM; in experiment [2] (setting [5]), 1520 nM.

With `O=C(Nc1nccs1)C(c1ccccc1)n1cnc2ccc(C#Cc3cccnc3)cc2c1=O` (centres unmarked) [Compound 061, 2-(4-Oxo-6-(pyridin-3-ylethynyl)quinazolin-3(4H)-yl)-2-phenyl-N-(thiazol-2-yl)acetamide], the results for the GI50 in experiment [2] (setting [4]) and in experiment [2] (setting [5]) were 28 nM and 4520 nM, respectively.
